Results taken from patent US20230081426A1, “COMPOUNDS AND METHODS FOR KRAS MODULATION AND INDICATIONS THEREFOR” (Plexxikon Inc., priority 2020, published 2023).

Experiments:
[1] = target: T1, G12V-mutant human KRAS (amino acid residues 1-188) (Homo sapiens, UniProt P01116, G12V); assay: KRAS Binding Competition Assay (AlphaScreen; biotinylated KRpep-2d analogue), G12V; settings: geometric mean, read-out: KRAS GMean IC50 (uM) MUTATION: G12V
T1 construct: G12V-mutant human KRAS (amino acid residues 1-188) with FLAG tag was purified from E. coli; made in house; host or cells: E. coli

[2] = target: T2, G12D-mutant human KRAS (amino acid residues 1-188) (Homo sapiens, UniProt P01116, G12D); assay: KRAS Binding Disruption Assay (AlphaScreen; biotinylated KRpep-2d analogue or RAF1-RBD), G12D; settings: KRAS G12D; geometric mean; read-out: KRAS GMean IC50 (uM) MUTATION: G12D
T2 construct: G12D or G12C-mutant human KRAS (amino acid residues 1-188) with FLAG tag; made in house; host or cells: E. coli
Outline: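 AlphaScreen readout: signal falls as compound displaces biotinylated KRpep-2d analogue or RAF1-RBD from mutant KRAS. Both partners at 5-20 nM, 1 h binding at 25° C, then 10 μg/mL Anti-Flag acceptor and streptavidin donor beads for 1 h. IC50 by nonlinear regression of % inhibition.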

Row | IC50 [1] [µM] | IC50 [2] [µM] | SMILES
1 | 10 to 100 | 0.0001 to 10 | CN1CCc2cccc(Oc3nc(N4C[C@H]5CC[C@@H](C4)N5)c4cc(Cl)c(-c5c(O)cccc5F)c(F)c4n3)c2C1 [P-0331, 2-(4-((1R,5S)-3,8-diazabicyclo[3.2.1]octan-3-yl)-6-chloro-8-fluoro-2-((2-methyl-1,2,3,4-tetrahydroisoquinolin-8-yl)oxy)quinazolin-7-yl)-3-fluorophenol]
2 | 10 to 100 | 0.0001 to 10 | Oc1cc(-c2ccc3c(N4CC5CCC(C4)N5)nc(OCC4CCC(O)C4)nc3c2F)c2ccccc2c1 [P-0622, 4-(4-((1R,5S)-3,8-diazabicyclo[3.2.1]octan-3-yl)-8-fluoro-2-((3-hydroxycyclopentyl)methoxy)quinazo-lin-7-yl)naphthalen-2-ol]
3 | 10 to 100 | 0.0001 to 10 | COc1ccc2[nH]cc(-c3c(Cl)cc4c(N5C[C@H]6CC[C@@H](C5)N6)nc(OC[C@@H]5CCCN5C)nc4c3F)c2c1 [P-0319, 4-((1R,5S)-3,8-diazabicyclo[3.2.1]octan-3-yl)-6-chloro-8-fluoro-7-(5-methoxy-1H-indol-3-yl)-2-(((S)-1-methylpyrrolidin-2-yl)methoxy)quinazoline]
4 | 100 to 1000 | 100 to 1000 | Cc1n[nH]c(C)c1-c1ccc2c(N3C[C@H]4CC[C@@H](C3)N4)nc(OC[C@@H]3CCCN3C)nc2c1 [P-0176, 4-((1R,5S)-3,8-diazabicyclo[3.2.1]octan-3-yl)-7-(3,5-dimethyl-1H-pyrazol-4-yl)-2-(((S)-1-methylpyrrolidin-2-yl)methoxy)quinazoline]
5 | 10 to 100 | 10 to 100 | CN1CCC[C@H]1COc1nc(N2[C@@H]3CC[C@H]2CN(CC(=O)Nc2ccccn2)C3)c2ccc(-c3cc(O)cc4ccccc34)cc2n1 [P-0225, 2-((1R,5S)-8-(7-(3-hydroxynaphthalen-1-yl)-2-(((S)-1-methylpyrrolidin-2-yl)methoxy)quinazolin-4-yl)-3,8-diazabicyclo[3.2.1]octan-3-yl)-N-(pyridin-2-yl)acetamide]

Second part, the compound before the results:

Row | SMILES | IC50 [1] [µM] | IC50 [2] [µM]
6 | CN1CC[C@@H](NC(=O)N2C3COCC2CN(c2nc(OC[C@@H]4CCCN4C)nc4c(F)c(-c5cc(O)cc6ccccc56)ccc24)C3)C1 [P-0250, 7-(8-fluoro-7-(3-hydroxynaphthalen-1-yl)-2-(((S)-1-methylpyrrolidin-2-yl)methoxy)quinazolin-4-yl)-N-((R)-1-methylpyrrolidin-3-yl)-3-oxa-7,9-diazabicyclo[3.3.1]nonane-9-carboxamide] | 0.0001 to 10 | 0.0001 to 10
7 | NS(=O)(=O)CCC(=O)N1[C@@H]2CC[C@H]1CN(c1nc(OCC34CCCN3CCC4)nc3cc(-c4cc(O)cc5ccccc45)ccc13)C2 [P-0093, 3-((1R,5S)-3-(7-(3-hydroxynaphthalen-1-yl)-2-((tetrahydro-1H-pyrrolizin-7a(5H)-yl)methoxy)quinazolin-4-yl)-3,8-diazabicyclo[3.2.1]octan-8-yl)-3-oxopropane-1-sulfonamide] | 0.0001 to 10 | 0.0001 to 10
8 | CN1CCC[C@H]1COc1nc(N2C[C@H]3CC[C@@H](C2)N3)c2cc(F)c(-c3c[nH]c4ccccc34)c(F)c2n1 [P-0308, 4-((1R,5S)-3,8-diazabicyclo[3.2.1]octan-3-yl)-6,8-difluoro-7-(1H-indol-3-yl)-2-(((S)-1-methylpyrrolidin-2-yl)methoxy)quinazoline] | 10 to 100 | 0.0001 to 10
9 | CN1CCC[C@H]1COc1nc(N2C[C@H]3CC[C@@H](C2)N3)c2ccc(-c3c(F)ccc(O)c3F)cc2n1 [P-0164, 3-(4-((1R,5S)-3,8-diazabicyclo[3.2.1]octan-3-yl)-2-(((S)-1-methylpyrrolidin-2-yl)methoxy)quinazolin-7-yl)-2,4-difluorophenol] | 100 to 1000 | 10 to 100
10 | CN1CCC[C@H]1COc1nc(N2C[C@H]3CC[C@@H](C2)N3C(=O)[C@@H]2C[C@@H](O)CN2)c2ccc(-c3cc(O)cc4ccccc34)c(F)c2n1 [P-0425, ((1R,5S)-3-(8-fluoro-7-(3-hydroxynaphthalen-1-yl)-2-(((S)-1-methylpyrrolidin-2-yl)methoxy)quinazolin-4-yl)-3,8-diazabicyclo[3.2.1]octan-8-yl)((2S,4R)-4-hydroxypyrrolidin-2-yl)methanone] | 10 to 100 | 0.0001 to 10
